In assay [1] the target is T1, Serine/threonine-protein kinase Nek2 (Homo sapiens) (UniProt P51955).
T1 sequence (whole entry): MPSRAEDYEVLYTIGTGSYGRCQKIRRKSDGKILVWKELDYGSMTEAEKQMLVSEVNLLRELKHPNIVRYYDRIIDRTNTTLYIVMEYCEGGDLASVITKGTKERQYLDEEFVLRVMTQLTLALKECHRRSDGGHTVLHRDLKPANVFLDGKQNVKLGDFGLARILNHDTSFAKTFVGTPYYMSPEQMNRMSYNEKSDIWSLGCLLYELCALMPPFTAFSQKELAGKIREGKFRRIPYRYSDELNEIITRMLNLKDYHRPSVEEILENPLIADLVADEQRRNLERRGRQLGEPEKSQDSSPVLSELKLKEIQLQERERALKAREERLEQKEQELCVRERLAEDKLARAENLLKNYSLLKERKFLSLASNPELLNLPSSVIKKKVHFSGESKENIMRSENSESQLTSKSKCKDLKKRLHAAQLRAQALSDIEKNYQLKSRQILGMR
Kind of assay: Inhibition of NEK2 (unknown origin) at 10 uM relative to control.

The target of assay [2] is Serine/threonine-protein kinase Nek6 (Homo sapiens) (UniProt Q9HC98). Kind of assay: Inhibition of NEK6 (unknown origin) at 10 uM relative to control.
For assay [3], the target named is Serine/threonine-protein kinase Nek4 (Homo sapiens) (UniProt P51957). Kind of assay: Inhibition of NEK4 (unknown origin) at 10 uM relative to control.
Assay [4] addresses T2, Serine/threonine-protein kinase Nek9 (Homo sapiens) (UniProt Q8TD19).
T2 sequence (whole entry): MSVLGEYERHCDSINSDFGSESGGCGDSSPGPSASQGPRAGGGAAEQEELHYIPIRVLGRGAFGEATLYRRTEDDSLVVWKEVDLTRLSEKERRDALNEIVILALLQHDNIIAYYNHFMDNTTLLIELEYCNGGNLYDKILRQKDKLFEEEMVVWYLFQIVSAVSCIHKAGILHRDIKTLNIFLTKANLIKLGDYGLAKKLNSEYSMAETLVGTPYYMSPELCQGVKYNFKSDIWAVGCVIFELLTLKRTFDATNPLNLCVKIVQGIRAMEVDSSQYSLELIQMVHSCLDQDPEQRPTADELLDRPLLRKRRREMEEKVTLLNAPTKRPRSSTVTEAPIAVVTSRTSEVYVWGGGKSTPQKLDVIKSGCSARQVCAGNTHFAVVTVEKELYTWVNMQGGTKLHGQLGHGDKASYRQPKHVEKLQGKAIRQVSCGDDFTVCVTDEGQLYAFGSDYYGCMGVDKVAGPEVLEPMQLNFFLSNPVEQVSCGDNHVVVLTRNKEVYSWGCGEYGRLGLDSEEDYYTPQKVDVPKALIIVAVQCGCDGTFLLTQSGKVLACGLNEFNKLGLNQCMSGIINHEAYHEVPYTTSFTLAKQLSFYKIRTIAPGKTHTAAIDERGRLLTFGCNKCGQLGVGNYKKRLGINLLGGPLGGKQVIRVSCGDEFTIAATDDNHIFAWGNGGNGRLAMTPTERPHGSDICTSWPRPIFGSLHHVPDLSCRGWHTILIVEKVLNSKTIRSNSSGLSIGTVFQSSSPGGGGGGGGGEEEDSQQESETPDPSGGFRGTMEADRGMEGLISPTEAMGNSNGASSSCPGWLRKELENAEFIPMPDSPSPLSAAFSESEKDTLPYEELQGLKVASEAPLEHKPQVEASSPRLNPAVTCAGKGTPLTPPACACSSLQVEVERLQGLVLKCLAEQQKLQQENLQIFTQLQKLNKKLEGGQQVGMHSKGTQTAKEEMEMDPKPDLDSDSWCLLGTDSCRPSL
Kind of assay: Inhibition of NEK9 (unknown origin) at 10 uM relative to control.

Assay [5] addresses T3, Serine/threonine-protein kinase Nek3 (Homo sapiens) (UniProt P51956).
T3 sequence (whole entry): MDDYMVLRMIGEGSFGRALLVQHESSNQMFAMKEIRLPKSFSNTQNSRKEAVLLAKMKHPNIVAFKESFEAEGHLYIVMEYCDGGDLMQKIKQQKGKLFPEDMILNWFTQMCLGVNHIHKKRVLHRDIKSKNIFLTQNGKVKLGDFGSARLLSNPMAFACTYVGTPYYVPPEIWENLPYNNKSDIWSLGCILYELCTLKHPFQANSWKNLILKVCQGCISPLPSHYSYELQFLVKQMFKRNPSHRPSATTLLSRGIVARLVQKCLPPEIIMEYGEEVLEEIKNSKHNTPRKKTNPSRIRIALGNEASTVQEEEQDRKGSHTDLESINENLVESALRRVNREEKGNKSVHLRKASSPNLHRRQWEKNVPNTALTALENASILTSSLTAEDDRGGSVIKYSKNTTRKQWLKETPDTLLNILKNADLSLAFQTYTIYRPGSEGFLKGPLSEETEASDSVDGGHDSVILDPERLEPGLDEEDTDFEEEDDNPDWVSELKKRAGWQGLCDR
Kind of assay: Inhibition of NEK3 (unknown origin) at 10 uM relative to control.

Structures are written as SMILES.

Serine/threonine-protein kinase Nek4 (Homo sapiens), sequence (P51957 whole entry, looked up): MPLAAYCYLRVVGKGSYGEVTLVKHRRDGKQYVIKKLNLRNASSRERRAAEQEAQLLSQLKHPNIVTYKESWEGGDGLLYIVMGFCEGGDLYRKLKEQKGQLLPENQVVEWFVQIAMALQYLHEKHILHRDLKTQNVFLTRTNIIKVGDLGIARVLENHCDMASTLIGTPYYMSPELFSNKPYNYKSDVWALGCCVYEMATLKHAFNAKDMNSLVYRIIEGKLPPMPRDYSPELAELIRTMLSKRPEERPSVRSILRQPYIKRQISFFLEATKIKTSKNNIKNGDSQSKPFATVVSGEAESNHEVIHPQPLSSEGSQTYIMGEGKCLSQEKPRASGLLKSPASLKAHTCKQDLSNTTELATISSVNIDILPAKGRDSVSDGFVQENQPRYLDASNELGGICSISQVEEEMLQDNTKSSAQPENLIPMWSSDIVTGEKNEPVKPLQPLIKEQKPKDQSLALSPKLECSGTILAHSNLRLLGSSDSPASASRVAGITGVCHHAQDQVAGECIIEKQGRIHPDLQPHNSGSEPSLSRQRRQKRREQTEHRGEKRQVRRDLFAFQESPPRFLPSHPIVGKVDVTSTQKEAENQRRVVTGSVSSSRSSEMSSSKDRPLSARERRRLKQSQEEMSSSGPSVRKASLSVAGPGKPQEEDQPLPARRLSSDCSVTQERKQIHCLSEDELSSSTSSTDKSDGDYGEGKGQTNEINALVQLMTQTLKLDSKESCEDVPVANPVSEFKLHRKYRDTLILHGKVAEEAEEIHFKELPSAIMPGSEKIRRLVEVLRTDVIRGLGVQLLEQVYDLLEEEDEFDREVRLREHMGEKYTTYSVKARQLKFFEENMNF
Serine/threonine-protein kinase Nek6 (Homo sapiens), sequence (Q9HC98 whole entry): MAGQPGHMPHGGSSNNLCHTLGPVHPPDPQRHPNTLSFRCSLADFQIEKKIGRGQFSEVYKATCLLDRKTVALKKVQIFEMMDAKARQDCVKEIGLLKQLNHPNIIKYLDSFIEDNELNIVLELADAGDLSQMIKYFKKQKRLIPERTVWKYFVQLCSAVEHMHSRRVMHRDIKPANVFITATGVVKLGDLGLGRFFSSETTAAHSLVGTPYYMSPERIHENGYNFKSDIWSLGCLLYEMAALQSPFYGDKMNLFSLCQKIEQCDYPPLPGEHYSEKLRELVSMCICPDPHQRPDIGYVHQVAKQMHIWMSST

Regarding `O=C1NC(=O)/C(=C/c2ccc3nccc(-c4ccncc4)c3c2)S1`, the % control in assay [1] was 64%; in assay [2], 81%; in assay [3] it was 96%; in assay [4], 95%; in assay [5], 77%.

For `CN(C)C/C=C/C(=O)Nc1cccc(C(=O)Nc2ccc(Nc3nccc(-c4cccnc4)n3)cc2)c1`, the % control in assay [1] was 86%; in assay [2], 17%; in assay [3], 83%; in assay [4], 48%; in assay [5] it was 6.8%.

Turning to `CN(C)C/C=C/C(=O)Nc1ccc(C(=O)Nc2cccc(Nc3nccc(-c4cccnc4)n3)c2)cc1`, the % control amounted to 1.1% in assay [1]; 2.8% in assay [2]; 100% in assay [3]; 22% in assay [4]; 17% in assay [5].

Take `Cc1cc(NC(=O)c2cccc(NC(=O)/C=C/CN(C)C)c2)ccc1Nc1nccc(-c2cccnc2)n1`: the % control in assay [1] came to 100%; in assay [2], 100%; in assay [3] it was 79%; in assay [4], 100%; in assay [5], 73%.

Take `Fc1cc(-c2cc[nH]/c(=N/c3ccc(-n4cnc(N5CCOCC5)n4)cc3)n2)cc(N2CCOCC2)c1`: the % control was 94% in assay [1]; 76% in assay [2]; 100% in assay [3]; 63% in assay [4]; 0.8% in assay [5].

Take `CN(C)C/C=C/C(=O)Nc1cccc(C(=O)Nc2ccc(Nc3nccc(-c4c(-c5ccccc5)nn5ccccc45)n3)cc2)c1`: the % control stood at 93% in assay [1]; 100% in assay [2]; 100% in assay [3]; 100% in assay [4]; 99% in assay [5].

On to `Cc1ccc(NC(=O)c2ccc(NC(=O)/C=C/CN(C)C)cc2)cc1Nc1nccc(-c2cccnc2)n1`, for which the % control in assay [1] was determined as 100%; in assay [2], 44%; in assay [3], 100%; in assay [4], 100%; in assay [5], 99%.

Consider `CN(C)C/C=C/C(=O)Nc1cccc(C(=O)Nc2ccc(Nc3nccc(/C(C#N)=C4\Nc5ccccc5S4)n3)cc2)c1`, for which the % control amounted to 99% in assay [1]; 100% in assay [2]; 100% in assay [3]; 63% in assay [4]; 100% in assay [5].
